Reference: ChEMBL document CHEMBL1127503, “3'-(Arylmethyl)- and 3'-(aryloxy)-3-phenyl-4-hydroxyquinolin-2(1H)-ones: orally active antagonists of the glycine site on the NMDA receptor” (J Med Chem, 1994)

How the values were obtained:
Mus musculus [1] = test: Protection from audiogenic seizure in the DBA/2 mouse 30 min after oral administration; format: functional; settings: 0.5 h
Mus musculus [2] = test: Protection from audiogenic seizure in the DBA/2 mouse 30 min after intraperitoneal administration; format: functional; settings: ip, 0.5 h
Rattus norvegicus = species: Rattus norvegicus; test: Blockade of NMDA-induced depolarizations on rat cortical slices; format: functional
[3] = target: Glutamate receptor ionotropic, NMDA 1 (Rattus norvegicus, UniProt P35439); test: Inhibition of the binding of [3H]L-689,560 ([3H]-4) to the strychnine-insensitive glycine site on rat brain membranes; format: cell membranes, Membrane
Mus musculus [4] = test: Protection from audiogenic seizure in the DBA/2 mouse 10 min after intraperitoneal administration; format: functional; settings: ip

IC50 [3] [nM]	Compound	ED50 (Mus musculus [1]) [mg/kg]	ED50 (Mus musculus [2]) [mg/kg]	Kb (Rattus norvegicus) [nM]	ED50 (Mus musculus [4]) [mg/kg]
1.4	Oc1nc2cc(Cl)ccc2c(O)c1-c1cccc(Oc2ccsc2)c1	0.8	0.8	5	–
–	Oc1nc2cc(Cl)ccc2c(O)c1-c1cccc(Cc2ccccc2)c1	3.9	–	87	1.3
170	O=c1[nH]c2cc(Cl)ccc2c(O)c1-c1ccccc1	7.6	4.5	880	–
14	O=C(O)c1cc(O)c2c(I)cc(Cl)cc2n1	–	> 250	410	–
2	O=c1[nH]c2cc(Cl)ccc2c(O)c1-c1cccc(Oc2ccccc2)c1	0.9	0.9	28	–
2.2	COCOc1ccc(Cc2cccc(-c3c(O)nc4cc(Cl)ccc4c3O)c2)cc1	0.9	0.5	3.2	–
2.3	Oc1nc2cc(Cl)ccc2c(O)c1-c1cccc(Cc2ccsc2)c1	5.1	1.5	19	–
4	O=C(Nc1ccccc1)N[C@H]1C[C@H](C(=O)O)Nc2cc(Cl)cc(Cl)c21	–	> 100	110	–
4.5	COc1ccc(Cc2cccc(-c3c(O)c4ccc(Cl)cc4[nH]c3=O)c2)cc1	0.9	0.7	25	–

Compound	IC50 [3] [nM]	ED50 (Mus musculus [1]) [mg/kg]	ED50 (Mus musculus [2]) [mg/kg]	Kb (Rattus norvegicus) [nM]	ED50 (Mus musculus [4]) [mg/kg]
O=C(O)CCc1c(C(=O)O)[nH]c2cc(Cl)cc(Cl)c12	69	–	> 100	1320	–
